Measurements taken from patent US20230192718A1, “BICYCLIC ENONE CARBOXYLATES AS MODULATORS OF TRANSPORTERS AND USES THEREOF” (NIROGY THERAPEUTICS, INC., priority 2018, published 2023).

Tests used:
[1] = system: panel of solid and haemotological tumor cell lines; assay: MTS cell proliferation assay (cytotoxicity); assay type: cell-based; details: 72 hours incubation, MTS readout
Method: MTS Cell Proliferation Assay
The anti-proliferation effect of MCT inhibition was investigated across a panel of solid and haemotological tumor cell lines. Cells were routinely cultured in their appropriate growth medium. On day 1, between 5,000-20,000 cells/well were plated into 96-well plates. 100 μL of phosphate buffered saline solution was added to the external wells to prevent media evaporation. Plates were incubated in growth medium overnight at 37° C. in the presence of 5% CO2. On day 2, dry weight compound stocks were dissolved to a concentration of 20 mM in 100% DMSO. Compounds were further diluted in the assay medium; 10 mM lactate medium (without glucose, pyruvate, and glutamine) or RPMI medium or appropriate medium to generate a final dose range of 10 nM to 100 μM. Growth medium in the 96-well plate was replaced with the assay medium (10 mM lactate medium or RPMI medium or appropriate medium), and compounds were added to each well in the plate at different concentrations via serial dilution or pre-prepared solutions in assay medium. Plates were then incubated at 37° C. in the presence of 5% CO2 for a further 72 hours. On day 5, 20 μL of CellTiter 96 AQ MTS reagent was added to each well and the plate was returned to the incubator for 2 hours. In case of lactate medium, the medium was replaced by 100 μL of growth medium and 20 μL of CellTiter 96 AQ MTS reagent. MTS is bioreduced by NADPH or NADH produced by dehydrogenase enzymes in metabolically active cells into a coloured formazan product that is soluble in tissue culture medium. The amount of coloured formazan product is directly proportional to the number of living cells in culture. The absorbance of the plates was read on a Synergy H4 plate reader using […] measurement wavelength. Dose response curves were plotted and IC50 values were calculated using GraphPrism. The IC50 value is equivalent to the concentration of compound that causes 50% inhibition of growth calculated from the compound treated signal to the vehicle treated signal.
MTT Cell Proliferation Assay
The MIT assay is a colorimetric assay for assessing cell viability similar to MTS assay. NAD(P)H-dependent cellular oxidoreductase enzymes may, under defined conditions, reflect the number of viable cells present. These enzymes are capable of reducing the tetrazolium dye MTT 3-(4,5-dimethylthiazol-2-yl)-2,5-diphenyltetrazolium bromide to its insoluble formazan, which has a purple color. MTT powder is dissolved in Dulbecco's Phosphate Buffered Saline, pH=7.4 (DPBS) to 5 mg/ml as stock solution. Cells and test compounds in 96-well plates were prepared containing a final volume of 100 μL/well as described in the MTS assay. The assay was performed similar to MTS assay above. […] The absorbance was read at 570 nm.

[2] = system: MDA-MB-231 human breast carcinoma cells; assay: Tumor xenograft model (orthotopic, NOD-SCID mice); assay type: in vivo; details: nine days after start of treatment
Method: In order to test the in vivo efficacy of the invention, Example 9 was tested according to the protocol of Iorns to al. [Iorns E, Drews-Elger K, Ward T M, Dean S, Clarke J, Berry D, et al. (2012) A New Mouse Model for the Study of Human Breast Cancer Metastasis. PLoS ONE 7(10): e47995. https://doi.org/10.1371/journal.pone.0047995] Twenty-eight female NOD-SCID mice (Charles River) were injected orthotopically with basal MDA-MB-231 human breast carcinoma cells into the mammary fat pads. […] Mice were dosed qd with 30 mg/kg and 75 mg/kg p.o. of Example 9. At nine days after start of treatment tumor volume was roughly 50% of control in mice dosed at 30 mg/kg and roughly 30% of control in mice dosed at 75 mg/kg.

Row | Structure (SMILES) | IC50 [1] | tumor volume, % of control ([2]; 30 mg/kg p.o. qd) | tumor volume, % of control ([2]; 75 mg/kg p.o. qd)
1 | CN(Cc1ccccc1)c1cc2oc(=O)c(C(=O)O)cc2s1 [Example 1, 2-(benzyl(methyl)amino)-5-oxo-5H-thieno[3,2-b]pyran-6-carboxylic acid] | < 1 µM |  | 
2 | COc1ccccc1C(=O)N(C)c1cc2oc(=O)c(C(=O)O)cc2s1 [Example 17, 2-[(2-Methoxy-benzoyl)-methyl-amino]-5-oxo-5H-thieno[3,2-b]pyran-6-carboxylic acid] | < 1 µM |  | 
3 | CN(Cc1ccc(F)cc1)c1cc2oc(=O)c(C(=O)O)cc2s1 [Example 2, 2-((4-fluorobenzyl)(methyl)amino)-5-oxo-5H-thieno[3,2-b]pyran-6-carboxylic acid] | < 1 µM |  | 
4 | COc1cccc(C(=O)N(C)c2cc3oc(=O)c(C(=O)O)cc3s2)c1 [Example 9, 2-(3-methoxy-N-methylbenzamido)-5-oxo-5H-thieno[3,2-b]pyran-6-carboxylic acid] | < 1 µM | roughly 50 % of control | roughly 30 % of control
